# From article PMC10576769 (Nature Communications, 2023)
# Columns and labels:
# LmPC-PLC [1] = target: T1, LmPC-PLC (Listeria monocytogenes serovar 1/2a, UniProt P33378); assay: biochemical; type: biochemical; conditions: for relative activity of LmPC-PLC WT on 4-NPPC (compared to uninhibited activity): Fig. 4g; for Activity of LmPC-PLC towards 4-NPPC (slope): 50 μM ZnSO4
# LmPC-PLC [2] = target: T1, LmPC-PLC; type: biochemical; conditions: 100% POPC MLVs […], 20 mM MES pH 6.5, 150 mM NaCl, 50 μM ZnSO4, 37 °C, replicate 1
# [3] = target: broad-range phospholipase C from Listeria monocytogenes (LmPC-PLC), wild type, mature form (Listeria monocytogenes) (UniProt P33378)
# T1 sequence (P33378 52-289 limits assumed): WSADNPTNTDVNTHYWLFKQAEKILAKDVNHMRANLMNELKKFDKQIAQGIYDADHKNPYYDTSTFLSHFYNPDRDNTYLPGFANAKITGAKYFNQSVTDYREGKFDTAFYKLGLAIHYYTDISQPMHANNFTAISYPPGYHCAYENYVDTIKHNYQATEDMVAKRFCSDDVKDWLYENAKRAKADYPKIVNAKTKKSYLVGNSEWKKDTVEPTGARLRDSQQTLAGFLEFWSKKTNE
# broad-range phospholipase C from Listeria monocytogenes (LmPC-PLC), wild type, mature form, sequence (P33378 52-289): as the sequence (P33378 52-289 limits assumed) above
molecule,measurement,setting,value
CC[C@H](C)[C@H](NC(=O)[C@H](CC(=O)O)NC(=O)[C@H](Cc1c[nH]cn1)NC(=O)[C@@H]1CCCN1C(=O)[C@H](C)NC(=O)[C@H](C)NC(=O)[C@@H]1CCCN1C(=O)[C@@H](NC(=O)[C@H](CCC(N)=O)NC(=O)[C@H](CC(C)C)NC(=O)[C@H](Cc1ccc(O)cc1)NC(=O)[C@H](CCC(=O)O)NC(=O)[C@H](CC(=O)O)NC(=O)[C@H](CS)NC(=O)[C@H](CS)NC(=O)[C@H](C)NC(=O)[C@@H](N)CC(N)=O)[C@@H](C)O)C(=O)N[C@@H](CC(=O)O)C(=O)N[C@@H](CO)C(=O)N[C@@H](CCCCN)C(=O)N[C@@H](CC(C)C)C(=O)N1CCC[C@H]1C(=O)N[C@@H](Cc1c[nH]cn1)C(=O)N[C@@H](CCCCN)C(=O)N[C@@H](CC(C)C)C(=O)N[C@@H](CO)C(=O)O [NS-26],"relative activity on 4-NPPC (compared to uninhibited activity), Lm","LmPC-PLC [1]; Fig. 4e, peptide 100uM, PC-PLC 500 nM, 4-NPPC 1 mM, 20 mM MES pH 6.5, 150 mM NaCl, 500 μM ZnSO4, 37 °C, replicate 1",0.3179
same,relative activity of LmPC-PLC WT on 4-NPPC (compared to uninhibited activity),"LmPC-PLC [1]; as E100, replicate 2",0.2706
same,relative activity of LmPC-PLC WT on 4-NPPC (compared to uninhibited activity),"LmPC-PLC [1]; as E100, replicate 3",0.2574
same,relative activity of LmPC-PLC WT on 4-NPPC (compared to uninhibited activity),"LmPC-PLC [1]; peptide 100 uM, enzyme 500 nM, 4-NPPC 1 mM, 20 mM MES pH 6.5, 150 mM NaCl, 500 μM ZnSO4, 37 °C, replicate 1",0.2356
same,IC50,"LmPC-PLC [1]; IC50, 95% CI, as IC50, 95% CI from the fit",4.9 to 33.9 µM
same,IC50,"LmPC-PLC [1]; IC50, LmPC-PLC 500 nM, 4-NPPC 1 mM, 20 mM MES pH 6.5, 150 mM NaCl, 500 μM ZnSO4, 37 °C, four-parameter logistic fit, n = 3",9.4 µM
same,"relative activity on POPC (compared to uninhibited activity), Lm","LmPC-PLC [2]; Fig. 4f, peptide 10 uM, PC-PLC 50 nM",0.3051
same,relative activity of LmPC-PLC WT on POPC (compared to uninhibited activity),"LmPC-PLC [2]; Fig. 4h, peptide 100 uM as printed in the head (legend and method: 10 μM), enzyme 50 nM",0.2837
O=C(O)CCP(CCC(=O)O)CCC(=O)O [TCEP],"Activity of LmPC-PLC, 4-NPPC as substrate (slope)","LmPC-PLC [1]; 1 mM TCEP, Zn 500 uM, LmPC-PLC 500 nM, 4-NPPC 1 mM, replicate 1",6.624e-5
same,"Activity of LmPC-PLC, 4-NPPC as substrate (slope)","LmPC-PLC [1]; 1 mM TCEP, Zn 500 uM, LmPC-PLC 500 nM, 4-NPPC 1 mM, replicate 2",6.51e-5
same,"Activity of LmPC-PLC, 4-NPPC as substrate (slope)","LmPC-PLC [1]; 1 mM TCEP, Zn 500 uM, LmPC-PLC 500 nM, 4-NPPC 1 mM, replicate 3",6.545e-5
same,"Activity of LmPC-PLC, 4-NPPC as substrate (slope)","LmPC-PLC [1]; 1 mM TCEP, Zn 5000 uM, LmPC-PLC 500 nM, 4-NPPC 1 mM, replicate 1",0.0001618
same,"Activity of LmPC-PLC, 4-NPPC as substrate (slope)","LmPC-PLC [1]; 1 mM TCEP, Zn 5000 uM, LmPC-PLC 500 nM, 4-NPPC 1 mM, replicate 2",0.0001898
same,"Activity of LmPC-PLC, 4-NPPC as substrate (slope)","LmPC-PLC [1]; 1 mM TCEP, Zn 5000 uM, LmPC-PLC 500 nM, 4-NPPC 1 mM, replicate 3",0.0002041
same,"Activity of LmPC-PLC, 4-NPPC as substrate (slope)","LmPC-PLC [1]; 5 mM TCEP, Zn 500 uM, LmPC-PLC 500 nM, 4-NPPC 1 mM, replicate 1, value 0 = no slope could be determined",0.00000
same,"Activity of LmPC-PLC, 4-NPPC as substrate (slope)","LmPC-PLC [1]; 5 mM TCEP, Zn 500 uM, LmPC-PLC 500 nM, 4-NPPC 1 mM, replicate 2, value 0 = no slope could be determined",0.00000
same,"Activity of LmPC-PLC, 4-NPPC as substrate (slope)","LmPC-PLC [1]; 5 mM TCEP, Zn 500 uM, LmPC-PLC 500 nM, 4-NPPC 1 mM, replicate 3, value 0 = no slope could be determined",0.00000
same,"Activity of LmPC-PLC, 4-NPPC as substrate (slope)","LmPC-PLC [1]; 5 mM TCEP, Zn 5000 uM, LmPC-PLC 500 nM, 4-NPPC 1 mM, replicate 1, value 0 = no slope could be determined",0.00000
same,"Activity of LmPC-PLC, 4-NPPC as substrate (slope)","LmPC-PLC [1]; 5 mM TCEP, Zn 5000 uM, LmPC-PLC 500 nM, 4-NPPC 1 mM, replicate 2, value 0 = no slope could be determined",0.00000
same,"Activity of LmPC-PLC, 4-NPPC as substrate (slope)","LmPC-PLC [1]; 5 mM TCEP, Zn 5000 uM, LmPC-PLC 500 nM, 4-NPPC 1 mM, replicate 3, value 0 = no slope could be determined",0.00000
same,"Activity of LmPC-PLC, 4-NPPC as substrate (slope)","LmPC-PLC [1]; 20 mM TCEP, Zn 500 uM, LmPC-PLC 500 nM, 4-NPPC 1 mM, replicate 1, value 0 = no slope could be determined",0.00000
same,"Activity of LmPC-PLC, 4-NPPC as substrate (slope)","LmPC-PLC [1]; 20 mM TCEP, Zn 500 uM, LmPC-PLC 500 nM, 4-NPPC 1 mM, replicate 2, value 0 = no slope could be determined",0.00000
same,"Activity of LmPC-PLC, 4-NPPC as substrate (slope)","LmPC-PLC [1]; 20 mM TCEP, Zn 500 uM, LmPC-PLC 500 nM, 4-NPPC 1 mM, replicate 3, value 0 = no slope could be determined",0.00000
same,"Activity of LmPC-PLC, 4-NPPC as substrate (slope)","LmPC-PLC [1]; 20 mM TCEP, Zn 5000 uM, LmPC-PLC 500 nM, 4-NPPC 1 mM, replicate 1, value 0 = no slope could be determined",0.00000
same,"Activity of LmPC-PLC, 4-NPPC as substrate (slope)","LmPC-PLC [1]; 20 mM TCEP, Zn 5000 uM, LmPC-PLC 500 nM, 4-NPPC 1 mM, replicate 2, value 0 = no slope could be determined",0.00000
same,"Activity of LmPC-PLC, 4-NPPC as substrate (slope)","LmPC-PLC [1]; 20 mM TCEP, Zn 5000 uM, LmPC-PLC 500 nM, 4-NPPC 1 mM, replicate 3, value 0 = no slope could be determined",0.00000
"c1ccc(CN(CCN(Cc2ccccn2)Cc2ccccn2)Cc2ccccn2)nc1 [TPEN, N,N,N′,N′-tetrakis(2-pyridinylmethyl)−1,2-ethanediamine]",inhibition of LmPC-PLC compared with O-phe,"LmPC-PLC [1]; LmPC-PLC 500 nM, 4-NPPC 1 mM, pH 6.5, 50 μM ZnSO4, Supplementary Fig. 10",even stronger inhibition
same,Activity of LmPC-PLC towards 4-NPPC (slope),"LmPC-PLC [1]; inhibitor 2 uM, LmPC-PLC 500 nM, 4-NPPC 1 mM, 20 mM MES pH 6.5, 150 mM NaCl, replicate 1 of N=3",0.0004788 abs/min
same,Activity of LmPC-PLC towards 4-NPPC (slope),"LmPC-PLC [1]; inhibitor 2 uM, LmPC-PLC 500 nM, 4-NPPC 1 mM, 20 mM MES pH 6.5, 150 mM NaCl, replicate 2 of N=3",0.0004923 abs/min
same,Activity of LmPC-PLC towards 4-NPPC (slope),"LmPC-PLC [1]; inhibitor 2 uM, LmPC-PLC 500 nM, 4-NPPC 1 mM, 20 mM MES pH 6.5, 150 mM NaCl, replicate 3 of N=3",0.0004163 abs/min
same,Activity of LmPC-PLC towards 4-NPPC (slope),"LmPC-PLC [1]; inhibitor 4 uM, LmPC-PLC 500 nM, 4-NPPC 1 mM, 20 mM MES pH 6.5, 150 mM NaCl, replicate 1 of N=3",0.0004484 abs/min
same,Activity of LmPC-PLC towards 4-NPPC (slope),"LmPC-PLC [1]; inhibitor 4 uM, LmPC-PLC 500 nM, 4-NPPC 1 mM, 20 mM MES pH 6.5, 150 mM NaCl, replicate 2 of N=3",0.0005039 abs/min
same,Activity of LmPC-PLC towards 4-NPPC (slope),"LmPC-PLC [1]; inhibitor 4 uM, LmPC-PLC 500 nM, 4-NPPC 1 mM, 20 mM MES pH 6.5, 150 mM NaCl, replicate 3 of N=3",0.0004264 abs/min
same,Activity of LmPC-PLC towards 4-NPPC (slope),"LmPC-PLC [1]; inhibitor 8 uM, LmPC-PLC 500 nM, 4-NPPC 1 mM, 20 mM MES pH 6.5, 150 mM NaCl, replicate 1 of N=3",0.0004334 abs/min
same,Activity of LmPC-PLC towards 4-NPPC (slope),"LmPC-PLC [1]; inhibitor 8 uM, LmPC-PLC 500 nM, 4-NPPC 1 mM, 20 mM MES pH 6.5, 150 mM NaCl, replicate 2 of N=3",0.0004696 abs/min
same,Activity of LmPC-PLC towards 4-NPPC (slope),"LmPC-PLC [1]; inhibitor 8 uM, LmPC-PLC 500 nM, 4-NPPC 1 mM, 20 mM MES pH 6.5, 150 mM NaCl, replicate 3 of N=3",0.0004182 abs/min
same,Activity of LmPC-PLC towards 4-NPPC (slope),"LmPC-PLC [1]; inhibitor 16 uM, LmPC-PLC 500 nM, 4-NPPC 1 mM, 20 mM MES pH 6.5, 150 mM NaCl, replicate 1 of N=3",0.0003725 abs/min
same,Activity of LmPC-PLC towards 4-NPPC (slope),"LmPC-PLC [1]; inhibitor 16 uM, LmPC-PLC 500 nM, 4-NPPC 1 mM, 20 mM MES pH 6.5, 150 mM NaCl, replicate 2 of N=3",0.0004155 abs/min
same,Activity of LmPC-PLC towards 4-NPPC (slope),"LmPC-PLC [1]; inhibitor 16 uM, LmPC-PLC 500 nM, 4-NPPC 1 mM, 20 mM MES pH 6.5, 150 mM NaCl, replicate 3 of N=3",0.0003534 abs/min
same,Activity of LmPC-PLC towards 4-NPPC (slope),"LmPC-PLC [1]; inhibitor 31 uM, LmPC-PLC 500 nM, 4-NPPC 1 mM, 20 mM MES pH 6.5, 150 mM NaCl, replicate 1 of N=3",0.0002559 abs/min
same,Activity of LmPC-PLC towards 4-NPPC (slope),"LmPC-PLC [1]; inhibitor 31 uM, LmPC-PLC 500 nM, 4-NPPC 1 mM, 20 mM MES pH 6.5, 150 mM NaCl, replicate 2 of N=3",0.0003429 abs/min
same,Activity of LmPC-PLC towards 4-NPPC (slope),"LmPC-PLC [1]; inhibitor 31 uM, LmPC-PLC 500 nM, 4-NPPC 1 mM, 20 mM MES pH 6.5, 150 mM NaCl, replicate 3 of N=3",0.0003443 abs/min
[Zn] [Zn],"Activity of LmPC-PLC, 4-NPPC as substrate (slope)","LmPC-PLC [1]; Zn 500 uM, 0 mM TCEP, LmPC-PLC 500 nM, 4-NPPC 1 mM, replicate 1",0.0003721
same,"Activity of LmPC-PLC, 4-NPPC as substrate (slope)","LmPC-PLC [1]; Zn 500 uM, 0 mM TCEP, LmPC-PLC 500 nM, 4-NPPC 1 mM, replicate 2",0.0004616
same,"Activity of LmPC-PLC, 4-NPPC as substrate (slope)","LmPC-PLC [1]; Zn 500 uM, 0 mM TCEP, LmPC-PLC 500 nM, 4-NPPC 1 mM, replicate 3",0.0006377
same,"Activity of LmPC-PLC, 4-NPPC as substrate (slope)","LmPC-PLC [1]; Zn 5000 uM, 0 mM TCEP, LmPC-PLC 500 nM, 4-NPPC 1 mM, replicate 1",0.0007074
same,"Activity of LmPC-PLC, 4-NPPC as substrate (slope)","LmPC-PLC [1]; Zn 5000 uM, 0 mM TCEP, LmPC-PLC 500 nM, 4-NPPC 1 mM, replicate 2",0.000691
same,"Activity of LmPC-PLC, 4-NPPC as substrate (slope)","LmPC-PLC [1]; Zn 5000 uM, 0 mM TCEP, LmPC-PLC 500 nM, 4-NPPC 1 mM, replicate 3",0.0004664
"broad-range phospholipase C from Listeria monocytogenes (LmPC-PLC), wild type, mature form (from UniProt P33378 52-289) (enzyme)",stoichiometry N,[3],2
